Laboratory results reported in article PMC4241293, “Sulfa Drugs as Inhibitors of Carbonic Anhydrase: New Targets for the Old Drugs” (BioMed Research International, 2014).

What was measured:
[1] = target: bovine cytosolic carbonic anhydrase II (bCA II) (Bos taurus, UniProt P00921); assay: In vitro carbonic anhydrase inhibition assay (p-nitrophenyl acetate hydrolysis); format: biochemical; conditions: for IC50: mean of three independent experiments ± SEM; for inhibition at 500 µM: at 0.5 mM concentration of tested compounds, mean ± SEM
Protocol: Carbonic anhydrase inhibition was measured by the reported method after standardization of reaction conditions such as concentration of enzyme and substrate, buffer pH, and duration of reaction. The method is based on spectrophotometric determination p-nitrophenol, the CA catalyzed hydrolysis product of p-nitrophenyl acetate. The reaction mixture consisted of 60 μL of 50 mM Tris-sulfate buffer (pH 7.6, containing 0.1 mM ZnCl2), 10 μL (0.5 mM) test compound in 1% DMSO, and 10 μL (50 U) bovine enzyme per well. […] Substrate, p-nitrophenyl acetate (6 mM stock using <5% acetonitrile in buffer), 20 μL was freshly prepared and added per well to achieve […] concentration per well. Total reaction volume was made to 100 μL.
The CA active site residues involved in direct zinc binding are His94, His96, and His119. In addition the substrate (CO2) association pocket, Thr199 loop, and the histidine proton shuttle mechanism (for regeneration of active site Zn bound hydroxide ion) are essential for CA catalytic activity and are highly conserved in all alpha class CAs. For this reason initial screening against bCA-II was carried out.

Chain of bovine cytosolic carbonic anhydrase II (bCA II) (P00921 whole entry): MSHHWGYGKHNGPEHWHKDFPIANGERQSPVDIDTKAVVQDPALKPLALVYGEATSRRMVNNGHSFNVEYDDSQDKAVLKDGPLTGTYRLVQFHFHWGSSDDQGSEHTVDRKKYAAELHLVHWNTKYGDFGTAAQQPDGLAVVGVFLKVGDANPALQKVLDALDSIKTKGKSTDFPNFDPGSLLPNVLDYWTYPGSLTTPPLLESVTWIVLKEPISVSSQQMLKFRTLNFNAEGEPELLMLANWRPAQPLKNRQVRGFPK

melting point [°C]	IC50 [1] [µM]	inhibition at 500 µM [1] [%]	Structure (SMILES)
268 to 270	105.3 ± 0.16	–	O=S(=O)(Nc1cnc2ccccc2n1)c1ccc(Nc2nc(Cl)nc(Cl)n2)cc1 [2a, 4-[(4,6-Dichloro-1,3,5-triazin-2-yl)amino]-N-(quinoxalin-2-yl)benzenesulfonamide]
235 to 237	4.14 ± 0.02	–	Cc1ccnc(NS(=O)(=O)c2ccc(Nc3nc(Cl)nc(Cl)n3)cc2)n1 [1a, 4-[(4,6-Dichloro-1,3,5-triazin-2-yl)amino]-N-(4-methylpyrimidin-2-yl)benzenesulfonamide]
221 to 223	24.9 ± 0.03	–	O=S(=O)(Nc1ncccn1)c1ccc(Nc2nc(Cl)nc(Cl)n2)cc1 [3a, 4-[(4,6-Dichloro-1,3,5-triazin-2-yl)amino]-N-(pyrimidin-2-yl)benzenesulfonamide]
–	–	42.4	Nc1ccc(S(=O)(=O)Nc2cncc(Cl)n2)cc1 [5b, sulfachloropyrazine, reference compound]
–	–	41.7	Cc1cc(C)nc(NS(=O)(=O)c2ccc(N)cc2)n1 [4b, sulfadimidine, reference compound]
327 to 329	14.9 ± 0.02	–	Cc1cc(C)nc(NS(=O)(=O)c2ccc(Nc3nc(Cl)nc(Cl)n3)cc2)n1 [4a, 4-[(4,6-Dichloro-1,3,5-triazin-2-yl)amino]-N-(4,6-dimethylpyrimidin-2-yl)benzenesulfonamide]
–	–	51.8	Nc1ccc(S(=O)(=O)Nc2cnc3ccccc3n2)cc1 [2b, sulfaquinoxaline, reference compound]
236 to 238	1.49 ± 0.006	–	O=S(=O)(Nc1cncc(Cl)n1)c1ccc(Nc2nc(Cl)nc(Cl)n2)cc1 [5a, N-(6-Chloropyrazin-2-yl)-4-[(4,6-dichloro-1,3,5-triazin-2-yl)amino]benzenesulfonamide]
